Assay results from US5300298A, “Methods of treating obesity with purine related compounds” (The Pennsylvania Research Corporation, priority 1992, dated 1994).

How the values were obtained:
[1] = tested on: lean and obese Zucker rats; assay: Daily serum glycerol during chronic administration of BW1433 (Alzet mini osmotic pumps); assay type: in vivo
Method: FIG. 2: Daily serum glycerol levels during chronic administration of BW1433 in lean (L) and obese (F) Zucker rats. In the no drug group (V) n=5, in the D1 group (0.2 mg/Kg/hr) n=5, and in the D2 group (0.4 mg/Kg/hr) n=4.
(§1) Next, I studied the effect of chronic treatment with BW1433. For this purpose I employed 2 ml Alzet mini osmotic pumps. Each pump was loaded with 2 ml of a solution containing BW1433 or with vehicle (aqueous solution adjusted to pH II). The amount of BW1433 was adjusted so that the pump delivered either zero, 0.2 mg or 0.4 mg/Kg/hour to each animal. On the first day the animals had the pumps implanted and were given a priming (2 mg/Kg or 4 mg/Kg) dose of the antagonist. Blood was taken prior to surgery and six hours after the animals were removed from their food supply. On each subsequent day animals had free access to food and water overnight, then their food removed for six hours, and a blood sample taken.
(§2) In addition to taking blood samples for glycerol analysis, each animal was weighed every day for seven days. After seven days the animals were fasted overnight and a glucose tolerance test given The animals were then sacrificed and 1 ml blood sample taken for serum insulin and serum BW1433 determination drug levels. Insulin levels were measured with RIA kit (Diagnostic Products) and BW1433 levels were measured fluorometrically after HPLC separation at Burroughs Wellcome, Research Triangle Park, North Carolina. […] Nonetheless, when glucose tolerance curves were administered on day 7, drug-related differences could still be seen in all animals studied. […] This is illustrated more clearly in FIG. 4 where the area under the glucose tolerance curve is shown as a bar for each of the 6 groups of animals. […] FIG. 5 is a chart of the change in weight of treated and untreated lean and obese animals. […] The effect on weight change in each case was maximal at day 3, the day when the glycerol values peaked. Based on these remarkable results, the compounds of Formula I can be administered to obese warm-blooded animals as anti-obesity agents, or administered to farm animals to advantageously increase the ratio of muscle mass to fat therein.

Al adenosine receptor [2] = assay: Blockade by BW1433 of receptors activated with the agonist N-6 phenylisopropyladenosine (PIA), subcutaneous; assay type: in vivo, rat (Sprague Dawley, lean Zucker, obese Zucker); details: all three strains of rat
Method: Next, I studied the effect of subcutaneous injections of BW1433 in 18 hour fasted animals. The results, shown in FIG. 1, support my initial postulation, that the Al adenosine receptor may be particularly active in obese animals. […] To distinguish between these possibilities, the agonist N-6 phenylisopropyladenosine (PIA) was injected subcutaneously either alone or in combination with BW1433.

[3] = Body weights during chronic administration of BW1433; assay type: in vivo, Zucker rats
Method: FIG. 5: Body weights of lean and obese Zucker rats during chronic administration of BW1433. The data are presented as a % of day 0 weight. Day 0 represents when the Alzet mini-pumps were implanted. The conditions are the same as those described in the legend to FIG. 2.
as §1
as §2, with “Based on these remarkable results, the compounds of Formula I can be administered to obese warm-blooded animals as anti-obesity agents, or administered to farm animals to advantageously increase the ratio of muscle mass to fat therein.” left out

Al adenosine receptor [4] = assay: Acute subcutaneous injection of BW1433, serum glycerol (whole body lipolysis); assay type: in vivo, Sprague Dawley rats; lean and obese Zucker rats; details: Sprague Dawley rats, 18 hour fasted, 60 min after subcutaneous injection, 0-10 mg/Kg
Method: FIG. 1: Serum glycerol levels 60 min after a subcutaneous injection of BW1433 (0-10 mg/Kg) in Sprague Dawley rats (SD) and lean and obese Zucker rats. Each point represents 3-4 animals in the case of SD rats and 3-10 or 4-10 in the case of lean and obese Zuckers, respectively.
My initial studies were carried out following acute subcutaneous injections of the drug into male Sprague Dawley rats and into lean and into obese Zucker rats. Blood samples (100 microliter) were taken from the tail of the rats and measurements made of serum glycerol^6. Glycerol is an end product of lipolysis and thus an excellent indicator of the rate of whole body lipolysis. […] I discovered that in the absence of the Formula I compound tested, serum glycerol levels only differ slightly when comparing lean and obese animals. Since there is 3-4 times more fat in the obese animal this is good evidence for sluggish lipolysis per g of fat in the obese. The obese animals however seem to mobilize the fat at an earlier time after removal of their food supply (Table 1), since after 6 hours of fasting the obese serum glycerol levels are much higher than the lean.
Next, I studied the effect of subcutaneous injections of BW1433 in 18 hour fasted animals. The results, shown in FIG. 1, support my initial postulation, that the Al adenosine receptor may be particularly active in obese animals. […]

[5] = Serum BW1433 level after chronic administration (fluorometric after HPLC separation); assay type: in vivo, Zucker rats; details: for concentration at 168 h: rat, serum, day 7
Method: as §2, with “Next, I studied the effect of chronic treatment with BW1433. For this purpose I employed 2 ml Alzet mini osmotic pumps. Each pump was loaded with 2 ml of a solution containing BW1433 or with vehicle (aqueous solution adjusted to pH II). The amount of BW1433 was adjusted so that the pump delivered either zero, 0.2 mg or 0.4 mg/Kg/hour to each animal. On the first day the animals had the pumps implanted and were given a priming (2 mg/Kg or 4 mg/Kg) dose of the antagonist. Blood was taken prior to surgery and six hours after the animals were removed from their food supply. On each subsequent day animals had free access to food and water overnight, then their food removed for six hours, and a blood sample taken. In addition” for “In addition”, “fat therein. […] The obese animals apparently have lower extracellular fluid volume per Kg body weight.” for “fat therein.”

[6] = tested on: lean and obese (fatty) Zucker rats; assay: Serum insulin after chronic administration of BW1433 (RIA kit); assay type: in vivo
Method: as §1, §2
The obese animals apparently have lower extracellular fluid volume per Kg body weight.

[7] = cited from earlier work
[8] = tested on: lean and obese Zucker rats; assay: Glucose tolerance test after seven days of BW1433 administration; assay type: in vivo
Method: FIG. 3: Glucose tolerance test after seven days of BW1433 administration. Animals were fasted overnight before injection of 1.25 g/Kg glucose and samples taken 15, 30, 60 and 120 min for glucose determinations. The conditions are the same as those described in legend to FIG. 2 (Cont=V).
FIG. 4: A bar graph representing the area under the glucose tolerance curves of FIG. 3.
as §1
as §2, with “Based on these remarkable results, the compounds of Formula I can be administered to obese warm-blooded animals as anti-obesity agents, or administered to farm animals to advantageously increase the ratio of muscle mass to fat therein.” left out

concentration at 168 h ([5]; 0.2 mg/kg/h, Fatty, +BW1433, 0.2 mg/kg (pump, per hour)): 205 ± 22 ng/mL | concentration at 168 h ([5]; 0.2 mg/kg/h, Lean, +BW1433, 0.2 mg/kg (pump, per hour)): 102 ± 20 ng/mL | concentration at 168 h ([5]; 0.4 mg/kg/h, Fatty, +BW1433, 0.4 mg/kg (pump, per hour)): 624 ± 80 ng/mL | concentration at 168 h ([5]; 0.4 mg/kg/h, Lean, +BW1433, 0.4 mg/kg (pump, per hour)): 366 ± 98 ng/mL
Structure (SMILES): CCCn1c(=O)c2nc(-c3ccc(/C=C/C(=O)O)cc3)[nH]c2n(CCC)c1=O [BW1433, (E)-4-(1,2,3,6-tetrahydro-2,6-dioxo-1,3-dipropyl-9H-purin-8-yl)cinnamic acid]
day when the glycerol values peaked ([1]; chronic): 3 days | serum levels on day 7 (adaptation to the drug) ([1]; day 7, chronic): all serum levels were similar on day 7 | effect on serum glycerol level ([1]; lean Zucker rats, chronic 0.2 or 0.4 mg/Kg/hour): did not effect the glycerol level | serum glycerol level, higher dose (0.4 mg/Kg) versus lower dose (0.2 mg/Kg) ([1]; obese Zucker rats, chronic): higher in the group with the higher dose of drug | serum glycerol level versus controls ([1]; obese Zucker rats, chronic 0.2 or 0.4 mg/Kg/hour): much higher levels of glycerol than the controls | dose at which receptors could be effectively blocked (Al adenosine receptor [2]): 1 to 2 mg/kg | growth or weight gain ([3]; lean Zucker rats): increased growth or weight gain | day of maximal effect on weight change ([3]; lean and obese): 3 days | growth or weight gain ([3]; obese Zucker rats): decreased growth or weight gain | effect on serum glycerol (Al adenosine receptor [4]): little or no effect | serum drug level, obese versus lean ([5]; obese compared with lean Zucker rats): somewhat higher levels of drug than the lean | serum insulin ([6]; Fatty, +BW1433, 0.2 mg/kg (vehicle 54.06 ± 9.49)): 52.81 ± 4.82 micro lu/ml | serum insulin ([6]; Fatty, +BW1433, 0.4 mg/kg (vehicle 54.06 ± 9.49)): 58.06 ± 6.52 micro lu/ml | serum insulin ([6]; Lean, +BW1433, 0.2 mg/kg (vehicle 7.92 ± 0.92)): 11.63 ± 1.62 micro lu/ml | serum insulin ([6]; Lean, +BW1433, 0.4 mg/kg (vehicle 7.92 ± 0.92)): 10.67 ± 1.50 micro lu/ml | oral administration and absorption [7]: can be administered and absorbed orally | glucose tolerance ([8]; day 7, 1.25 g/Kg glucose): improved glucose tolerance | area under the glucose tolerance curves ([8]; lean and obese (fatty) animals, FIG. 4): does reduce the area under these curves | area under the glucose tolerance curve ([8]; lean and obese Zucker rats, 1.25 g/Kg glucose intraperitoneal, day 7, dose dependence): smaller, the larger the dose
